Measured values as given in patent US20090269795A1, “Mutant alpha4betadelta GABAA receptor and methods of treating anxiety or irritability” (priority 2007, published 2009).

Columns and labels:
[1] = system: α4β2δ GABAA receptors with α4 mutations R351Q, K352Q, K316Q, R317Q and K318Q; test: Patch clamp of GABA-gated current at mutated receptors in HEK-293 cells; assay type: cell-based, mouse α4; conditions: 30 nM THP
Procedure: Whole cell patch clamp recording—GABA-gated currents were recorded at room temperature (20-22° C.) at a holding potential of −50 mV^14. The pipet solution contained (in mM): N-methyl-D-glucamine chloride 120, Cs4BAPTA 5 (Calbiochem), Mg-ATP 5, and an ATP regeneration system (20 mM Tris phosphocreatine and creatine kinase). Internal [Cl^−] or the holding potential were varied, using gluconate as the anion, to alter the direction of Cl^− flow, corrected for the junction potential. In some cases, current-voltage curves were constructed using the peak current response to agonist or agonist+THP across a range of holding potentials (−60 to +60) applied as 10 mV steps, or as a voltage ramp. […] Traces are presented as the average of 3 traces after subtraction of the leak current. […] This rapid application technique yields currents with a rapid rise phase. THP was also bath applied 30 s prior to tests of steroid effects. Currents were recorded using an Axopatch 1D amplifier (Axon Instruments) filtered at 2 kHz (four-pole Bessel filter) and detected at 10 kHz (pClamp 5.1). Analysis of peak current was accomplished with pClamp 9.2 and Origin software (Microcal).
Mutagenesis: Site-directed mutations were made using the Quik-Change Mutagenesis Kit I or II (Stratagene Inc., La Jolla, Calif.). Numbering of mutated residues was based on the distance from arginine 99^19. Successful mutations were verified with double-stranded sequencing of end-products (Genewiz Inc., North Brunswick, N.J.).
Recombinant receptors: Human embryonic kidney (HEK)-293 cells were transfected with α4 β2δ or other indicated subunit combinations (see Supplementary Methods) and co-transfected with enhanced green fluorescent protein for visualization. GABA-gated currents were recorded at room temperature (20-22° C.) at a holding potential of −50 mV^17 using a pipet solution containing 120 mM: N-methyl-D-glucamine chloride. Internal [Cl^−] or the holding potential were varied to alter the direction of Cl^− flow. […] Currents were recorded using an Axopatch 1D amplifier (Axon Instruments) filtered at 2 kHz (four-pole Bessel filter), detected at 10 kHz and analyzed with pClamp 9.2. Desensitization rate was determined using non-linear curve-fitting routines (Origin, Microcal; see next section).

[2] = system: female C57BL6 mice; test: Elevated plus maze (with or without restraint stress); assay type: in vivo, mouse
Text: Animal subjects. Prepubertal and pubertal female C57BL6 mice (3½-6 weeks old, +/+ and δ^−/−1) were housed in a reverse light:dark cycle (12:12). Both sets of mice were originally supplied by G. Homanics (Univ. of Pittsburgh), and were bred on site, with +/+ mice supplemented from Jackson Laboratories (Bar Harbor, Me.). Initially, age-matched+/+littermates of the δ^−/−were used as controls, but because they were indistinguishable from C57BL6, data from both groups were pooled. Genotyping of the tails verified that mice were homozygous δ^−/−. Some animals (+/+ or δ^−/−) were injected with finasteride (1,(5α)-androstene-4-aza-3-one-N-tert-butyl-17β-carboxaminde, Steraloids, 50 mg kg^, −1 intraperitoneally, 3 days) to block THP synthesis^2 or oil vehicle on a daily basis 1-1.5 h before dark onset, when THP levels increase, and tested 30 min. later. The onset of puberty was determined by vaginal opening, and pubertal mice tested on the day of first metestrus, identified by vaginal morphology and verification of first estrus the previous day. Mice with vaginal smears representative of diestrus were excluded from the study. Individual stages of puberty were not distinguished, and pre-pubertal mice were used before any visible signs of pubertal development, assessed by development of the peri-vaginal area. In some cases, pubertal mice were injected with replacement THP (3α-OH-5β-pregnan-20-one, 10 mg kg^−1, intraperitoneally in oil) for three days before testing. Procedures were in accordance with the SUNY Downstate Institutional Animal Care and Use Committee.
Restraint stress. In order to test the effect stress-induced release of THP^6,46,47 on anxiety, mice were restrained in a clear Plexiglas tube-type holder (Harvard Apparatus) for 45 min. and tested 20 min. later on the elevated plus maze (see Supplementary Methods). Open arm time was evaluated for 5 min. on the elevated plus maze. A decrease in open arm time reflects an increase in anxiety^18. In all cases, the results from each mouse tested after restraint was expressed relative to the averaged results from the sham controls, which were identical to the stressed animals (age, genotype, sex, drug-injected), except that they were not subjected to restraint stress.
Elevated plus maze. Testing rodent behavior on the elevated plus maze is an established animal model of anxiety^31. The plus maze consists of four 8×35 cm arms at 90° angles, elevated 57 cm above the floor. Two arms are enclosed by 33 cm walls, and two arms have no walls (“open arms”). […] Each animal was initially acclimated to the room for 30 min-1 h before being placed in the center of the maze, and exploratory activity recorded for 5 min. […]

[3] = system: α4 and δ GABAA receptor subunits; test: Western blot of hippocampal α4 and δ subunit expression; assay type: in vivo, mouse; conditions: replacement THP 10 mg kg−1 day−1 for 3 days
Text: Animal subjects. Prepubertal and pubertal female C57BL6 mice (3½-6 weeks old, +/+ and δ^−/−1) were housed in a reverse light:dark cycle (12:12). Both sets of mice were originally supplied by G. Homanics (Univ. of Pittsburgh), and were bred on site, with +/+ mice supplemented from Jackson Laboratories (Bar Harbor, Me.). Initially, age-matched+/+littermates of the δ^−/−were used as controls, but because they were indistinguishable from C57BL6, data from both groups were pooled. Genotyping of the tails verified that mice were homozygous δ^−/−. […] The onset of puberty was determined by vaginal opening, and pubertal mice tested on the day of first metestrus, identified by vaginal morphology and verification of first estrus the previous day. […] Individual stages of puberty were not distinguished, and pre-pubertal mice were used before any visible signs of pubertal development, assessed by development of the peri-vaginal area. […]
Western blot: Procedures were performed on hippocampal membranes at protein concentrations in the linear range (5-10 μg), as we have described^7. Following preparation of crude hippocampal membranes, individual protein concentrations were assessed using the Bradford assay. […] (The δ antibody was a generous gift from W. Sieghart.) Optical densities were quantified with One-Dscan software from a scanned image. […]

## CC(=O)[C@H]1CC[C@H]2[C@@H]3CC[C@H]4C[C@H](O)CC[C@]4(C)[C@H]3CC[C@]12C [THP, 3α-OH-5α[β]-pregnan-20-one]
[1]
  effect of mutation on THP inhibition of outward current: had no effect
[2]; 10 mg kg−1 intraperitoneally, acute, after onset of puberty
  decrease of open arm time: 35±8%
[2]; 10 mg kg−1 intraperitoneally, after onset of puberty
  locomotor activity: without changing locomotor activity
[2]; replacement THP 10 mg kg−1 i.p. for three days at puberty
  anxiety response to stress after steroid replacement: did not exhibit an anxiety response to stress
[3]
  effect on increased expression of α4 and δ subunits at onset of puberty: prevented
